The values that follow are results of earlier work, collected in patent US20020192293A1, “Method for manufacture of extended release dosage form” (priority 2001, published 2002).

The conditions of the data set: in words.

Read-outs that look alike come from different tables or passages of the source.

As for `O=C1NC(=O)C(c2ccccc2)(c2ccccc2)N1` [phenytoin, 5,5-diphenyl-2,4-imidazolidinedione], the solubility in water entry is reported as “poor solubility in water”. Moreover, under “listed as free-phenytoin”, the solubility in water result was “practically insoluble in water”. As to `O=C1N=C([O-])NC1(c1ccccc1)c1ccccc1.[Na+]` [sodium phenytoin, Sodium phenytoin], the solubility in water result is “much more soluble”.
